≈ marks a conversion by molar mass, not a printed value. Entries after “also recorded” stand apart in the source; their conditions may differ. Where two headings read alike, the source gives them in different places.
What was measured:
[1] = test system: ER-like binding site (specific [3H]-E2 binding); test: Competitive displacement of specific [3H]-E2 binding in gonad cytosolic extracts; conditions: for Displacement activity / affinity for ER-like binding site (in words): 24 nM [3H]-E2; for IC50: read-out: IC50, displacement of specific [3H]-E2 binding, 24 nM [3H]-E2, 18 hr incubation, n = 3
[2] = test system: Marisa cornuarietis; format: in vivo; conditions: for Oviduct malformations under co-exposure with BPA: 5 μg BPA/L plus 3 μg ICI 182,780/L or 10 μg tamoxifen/L; for EC10 (95% confidence intervals), clutch production / EC10 (95% confidence intervals), egg production / NOEC, clutch production / NOEC, egg production: entire duration
[3] = ref Heemken et al. 2001; Staples et al. 1998; cited from earlier work
[4] = test system: Marisa cornuarietis; test: Exposure series I: 6-month semistatic exposure of sexually mature snails at 22°C; format: in vivo
[5] = test system: C. riparius; conditions: freshly emerged midges, 1 to 3,000 μg/L; ref Hahn et al. (2002); cited from earlier work
[6] = cited from earlier work
[7] = test system: Potamopyrgus antipodarum; conditions: exposure via sediments; ref Duft et al. (2003); cited from earlier work
[8] = test system: Japanese medaka (Oryzias latipes); conditions: ref Metcalfe et al. 2001; cited from earlier work
[9] = test system: Caenorhabditis elegans; conditions: ref Tominaga et al. (2003); cited from earlier work
[10] = test system: vertebrate ER; conditions: ref Bolger et al. 1998; cited from earlier work
[11] = test system: Acartia tonsa; conditions: ref Andersen et al. (1999); cited from earlier work
[12] = test system: swordtails (Xiphophorus helleri); conditions: male fish; ref Kwak et al. 2001; cited from earlier work
[13] = test system: aquatic organisms (vertebrates and invertebrates); conditions: ref Hirano et al. 2004, Ike et al. 2002; cited from earlier work
[14] = test system: Marisa cornuarietis; conditions: ref Oehlmann et al. 2000; cited from earlier work
[15] = test system: freshwater sponges (Heteromyenia sp.); conditions: ref Hill et al. (2002); cited from earlier work
[16] = prespawning period (days 0–65), 22°C, based on measured BPA concentrations
[17] = prespawning period, 22°C, measured concentrations
[18] = 20°C, measured BPA concentrations
[19] = 27°C, measured BPA concentrations

CC/C(=C(\c1ccccc1)c1ccc(OCCN(C)C)cc1)c1ccccc1 [Tam, tamoxifen, reference compound]
Displacement activity / affinity for ER-like binding site (in words) [1]: moderate affinity
Oviduct malformations under co-exposure with BPA ([2]; 20°C): No oviduct malformations

C[C@]12CC[C@H]3[C@@H](CCC4=CC(=O)CC[C@@]43C)[C@@H]1CC[C@@H]2O [T, testosterone]
Displacement activity / affinity for ER-like binding site (in words) [1]: only weak displacement activity

C[C@]12CC[C@@H]3c4ccc(O)cc4CC[C@H]3[C@@H]1CC[C@@H]2O [E2]
IC50 [1]: 0.753 µM

CC(C)(c1ccc(O)cc1)c1ccc(O)cc1 [BPA, 4,4′-isopropylidine diphenol]
IC50 [1]: 24.8 µM
log KOW [3]: 2.20–3.82
Cumulative clutch and egg production compared with SC ([4]; entire experiment, nominal BPA 0.1, 0.5 and 1 μg/L, PC 0.01 μg/L EE2, p < 0.05): significantly more
Incidence of superfemales with oviduct malformations ([4]; nominal 0.05 μg/L BPA, 22°C): 1.2%
Incidence of superfemales with oviduct malformations ([4]; nominal 0.1 μg/L BPA, 22°C): 0%
Incidence of superfemales with oviduct malformations ([4]; nominal 0.25 μg/L BPA, 22°C): 2.0%
Incidence of superfemales with oviduct malformations ([4]; nominal 0.5 μg/L BPA, 22°C): 3.1%
Incidence of superfemales with oviduct malformations ([4]; nominal 1 μg/L BPA, 22°C): 3.2%
EC10 (95% confidence intervals), clutch production [4, 16]: 14.6 (13.8–15.4) ng/L
EC10 (95% confidence intervals), egg production [4, 16]: 13.9 (12.8–15.0) ng/L
LOEC, clutch production [4, 17]: 48.3 ng/L
LOEC, egg production [4, 17]: 48.3 ng/L
NOEC, clutch production [4, 17]: 7.9 ng/L
NOEC, egg production [4, 17]: 7.9 ng/L
Imposex development ([4]; sexually mature snails, 22°C, ANOVA and Weir test p > 0.2): did not induce imposex development
Reduction of yolk protein contents [5]: 20–25%
half-life (degradation) ([6]; in sewage treatment plants, ref Howard 1989): 28 days
half-life (degradation) ([6]; in water, ref Dorn et al. 1987): 2.5 to 4 days
EC10, increase of embryo numbers in the brood pouch (superfemale response) [7]: 0.22 μg BPA/kg
Concentration inducing ovotestes (as low as) [8]: 10 ng/mL
LC50 [9]: > 100 µM
Affinity to the vertebrate ER (in words) [10]: weak affinity
Concentration with increase of egg production [11]: 20 μg BPA/L
Concentration range inhibiting development of the sword [12]: 0.2 to 20 ng/mL
96-hr LC50 (median lethal concentration) [13]: 1000 to 20000 ng/mL
Concentration inducing superfeminization syndrome (as low as) [14]: 1 ng/mL
Imposex development ([2]; 20°C and 27°C, ANOVA and Weir test p > 0.5): did not induce imposex development
Size of genital organs (penis pouch, penis sheath, penis) in males ([2]; 20°C or 27°C, with the exception of penis length at 20°C): did not affect
EC10 (95% confidence intervals), clutch production [2, 18]: 18.0 (6.20–52.4) ng/L
EC10 (95% confidence intervals), egg production [2, 18]: 14.8 (6.07–36.2) ng/L
NOEC, clutch production ([2]; 20°C, measured concentrations): < 106 ng/L
NOEC, egg production ([2]; 20°C, measured concentrations): < 106 ng/L
LOEC, clutch production ([2]; 20°C, measured concentrations): 106 ng/L
LOEC, egg production ([2]; 20°C, measured concentrations): 106 ng/L
Incidence of superfemales with oviduct malformations ([2]; 20°C, nominal 0.25 μg/L BPA): 4.8
Incidence of superfemales with oviduct malformations ([2]; 20°C, nominal 0.5 μg/L BPA): 8.0
Incidence of superfemales with oviduct malformations ([2]; 20°C, nominal 1 μg/L BPA): 14.8
Incidence of superfemales with oviduct malformations ([2]; 20°C, nominal 5 μg/L BPA): 11.5
Mortality compared to SC ([2]; 20°C, 0.25, 0.5, 1 and 5 μg BPA/L, χ2 test): increased significantly
Clutch and egg production compared with SC ([2]; 20°C, cumulative p < 0.01, per female p < 0.001): significantly more
Penis length in males ([2]; 20°C, p < 0.01): significant decrease; also recorded: concentration-dependent reduction
EC10 (95% confidence intervals), clutch production [2, 19]: 2090 (796–5,460) ng/L
EC10 (95% confidence intervals), egg production [2, 19]: 998 (161–6,200) ng/L
NOEC, clutch production ([2]; 27°C, measured concentrations): ≥ 1990 ng/L
NOEC, egg production ([2]; 27°C, measured concentrations): 205 ng/L
Clutch production compared with control ([2]; 27°C, groups exposed solely to BPA): none of the groups exposed solely to BPA produced significantly more clutches
EC10, clutch production [2, 19]: 2.09 ng/mL (≈ 9.15 nM)
EC10, egg production [2, 19]: 0.998 ng/mL (≈ 4.37 nM)
LOEC, egg production ([2]; 27°C, measured concentrations): 436 ng/L
Cumulative egg production compared with SC ([2]; 27°C, only at nominal 1 and 5 μg/L, p < 0.05): significant increase
Concentration completely inhibiting germination [15]: 80000 ng/mL
Concentration range with significant reductions in growth rates [15]: 160 to 160000 ng/mL

C[C@]12CC[C@@H]3c4ccc(O)cc4C[C@@H](CCCCCCCCC[S+]([O-])CCCC(F)(F)C(F)(F)F)[C@H]3[C@@H]1CC[C@@H]2O (stereo partly shown) [ICI, ICI 182,780, reference compound]
Imposex intensities compared to SC under co-exposure with BPA ([2]; 5 μg BPA/L plus 3 μg ICI 182,780/L, both temperatures, Weir test p < 0.05): imposex intensities increased
Oviduct malformations under co-exposure with BPA ([2]; 20°C): No oviduct malformations

Source: article PMC1874184 (Environmental Health Perspectives, 2005)
